Assay results published in patent publication US20250000872A1, “FORMULATIONS AND DOSING REGIMENS FOR RIP1 KINASE INHIBITORS FOR TREATING AUTOIMMUNE AND INFLAMMATORY DISEASES” (Eli Lilly and Company, priority 2023, published 2025).

Experiments:
CYP3A5 = assay: In vitro drug-drug interaction studies: CYP3A5 induction; format: in vitro ADME; conditions: based upon in vitro studies
[1] = Phase I first-in-human study: safety, tolerability and PK of single and multiple doses in healthy volunteers; format: in vivo; conditions: for AUC(0-t): human, estimated from AUC0-∞ at single dose of 125 mg in phase 1 study Part 3
Description: The study was conducted in 3 parts: single-ascending doses (Part 1A), multiple-ascending doses (Part 2), and formulation assessment (Part 1B and Part 3).

CYP2C8 = target: T1, CYP2C8 (Homo sapiens, UniProt P10632); assay: In vitro drug-drug interaction studies: CYP2C8 inhibition; format: in vitro ADME; conditions: based upon in vitro studies
T1 sequence (P10632 1-490): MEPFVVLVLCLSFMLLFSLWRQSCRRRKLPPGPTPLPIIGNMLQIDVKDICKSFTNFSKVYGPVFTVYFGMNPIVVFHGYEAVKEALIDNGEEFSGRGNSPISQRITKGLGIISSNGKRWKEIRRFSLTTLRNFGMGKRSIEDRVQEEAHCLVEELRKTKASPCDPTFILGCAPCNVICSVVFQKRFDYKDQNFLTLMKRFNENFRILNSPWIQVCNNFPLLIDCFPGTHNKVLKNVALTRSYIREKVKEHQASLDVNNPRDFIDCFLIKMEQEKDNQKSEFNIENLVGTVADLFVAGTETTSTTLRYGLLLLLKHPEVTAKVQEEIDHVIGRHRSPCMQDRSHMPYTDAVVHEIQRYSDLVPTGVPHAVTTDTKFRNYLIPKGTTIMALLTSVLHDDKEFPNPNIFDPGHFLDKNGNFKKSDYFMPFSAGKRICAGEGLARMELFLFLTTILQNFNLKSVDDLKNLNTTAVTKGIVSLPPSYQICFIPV

rats [2] = assay: Rat embryofetal development study; format: in vivo
[3] = Rat embryofetal development study; format: in vivo; conditions: female, rat, in vivo, po; plasma toxicokinetics on Gestational Day 17, 1000 mg/kg/day; read-out: AUC0-24 at rat EFD NOEL
P-gp = P-gp (Homo sapiens, UniProt P08183); assay: In vitro drug-drug interaction studies: P-gp transporter inhibition; format: in vitro ADME; conditions: based upon in vitro studies
[4] = Phase 1 open-label single-dose fixed-sequence study: solid dispersion oral suspension vs crystalline freebase tablet, healthy participants; format: in vivo, human; conditions: amorphous vs corresponding crystalline preparation
From the text: Each participant received both formulations in 2 separate dosing periods.
The median tmax was longer for the tablet compared with the oral suspension. The geometric mean t1/2 was similar between formulations. […] Between-participant CV for AUC (0-tlast), AUC (0-∞), and Cmax was higher for the tablet compared with the oral suspension.

rats [5] = assay: 6-month repeat-dose toxicity study in rats; format: in vivo
[6] = 6-month repeat-dose toxicity study in rats; format: in vivo; conditions: rat, in vivo, po, 1000 mg/kg/day
monkeys = assay: Repeat-dose toxicity studies in monkeys (up to 9-month); format: in vivo
[7] = as above; format: in vivo; conditions: monkey, in vivo
OATP1B3 = target: T2, OATP1B3 (Homo sapiens, UniProt Q9NPD5); assay: In vitro drug-drug interaction studies: OATP1B3 transporter inhibition; format: in vitro ADME; conditions: based upon in vitro studies
T2 sequence (Q9NPD5 1-702): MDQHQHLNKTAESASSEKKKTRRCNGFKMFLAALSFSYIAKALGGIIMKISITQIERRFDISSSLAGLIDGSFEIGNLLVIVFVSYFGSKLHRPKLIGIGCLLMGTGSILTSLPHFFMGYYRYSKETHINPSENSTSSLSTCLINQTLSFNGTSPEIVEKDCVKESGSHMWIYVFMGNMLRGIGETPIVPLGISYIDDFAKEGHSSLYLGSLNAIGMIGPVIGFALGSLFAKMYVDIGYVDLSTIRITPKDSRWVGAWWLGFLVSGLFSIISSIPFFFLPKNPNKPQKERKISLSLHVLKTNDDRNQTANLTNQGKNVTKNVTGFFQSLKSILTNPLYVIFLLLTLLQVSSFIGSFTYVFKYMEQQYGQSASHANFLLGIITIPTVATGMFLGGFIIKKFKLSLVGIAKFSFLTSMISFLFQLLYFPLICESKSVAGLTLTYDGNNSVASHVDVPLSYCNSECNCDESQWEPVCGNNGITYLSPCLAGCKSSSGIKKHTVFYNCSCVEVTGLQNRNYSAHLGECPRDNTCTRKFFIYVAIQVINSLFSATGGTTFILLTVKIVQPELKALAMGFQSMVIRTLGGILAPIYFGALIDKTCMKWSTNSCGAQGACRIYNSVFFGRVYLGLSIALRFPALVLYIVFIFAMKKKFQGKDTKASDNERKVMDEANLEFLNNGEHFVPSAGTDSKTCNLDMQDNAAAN

BCRP = target: T3, BCRP (Homo sapiens, UniProt Q9UNQ0); assay: In vitro drug-drug interaction studies: BCRP transporter inhibition; format: in vitro ADME; conditions: based upon in vitro studies
T3 sequence (Q9UNQ0 1-655): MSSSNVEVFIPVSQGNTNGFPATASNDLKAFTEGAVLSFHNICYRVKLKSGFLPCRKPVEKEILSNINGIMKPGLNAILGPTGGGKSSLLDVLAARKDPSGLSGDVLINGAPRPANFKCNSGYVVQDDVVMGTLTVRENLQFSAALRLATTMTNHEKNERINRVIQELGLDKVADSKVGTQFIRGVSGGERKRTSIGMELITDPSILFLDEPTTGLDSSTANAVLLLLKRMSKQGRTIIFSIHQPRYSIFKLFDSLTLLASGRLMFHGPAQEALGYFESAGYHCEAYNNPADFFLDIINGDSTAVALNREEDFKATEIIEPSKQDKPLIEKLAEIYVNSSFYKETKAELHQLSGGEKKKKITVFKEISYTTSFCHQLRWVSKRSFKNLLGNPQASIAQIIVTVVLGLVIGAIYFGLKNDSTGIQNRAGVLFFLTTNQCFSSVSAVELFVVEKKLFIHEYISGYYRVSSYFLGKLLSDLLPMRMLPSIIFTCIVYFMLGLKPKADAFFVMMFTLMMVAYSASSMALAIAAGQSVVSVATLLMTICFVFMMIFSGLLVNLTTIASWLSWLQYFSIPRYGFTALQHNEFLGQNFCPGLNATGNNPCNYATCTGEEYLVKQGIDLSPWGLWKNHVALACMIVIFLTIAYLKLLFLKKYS

[8] = AUC in animals/(predicted) AUC in humans

P-gp, sequence (P08183 whole entry): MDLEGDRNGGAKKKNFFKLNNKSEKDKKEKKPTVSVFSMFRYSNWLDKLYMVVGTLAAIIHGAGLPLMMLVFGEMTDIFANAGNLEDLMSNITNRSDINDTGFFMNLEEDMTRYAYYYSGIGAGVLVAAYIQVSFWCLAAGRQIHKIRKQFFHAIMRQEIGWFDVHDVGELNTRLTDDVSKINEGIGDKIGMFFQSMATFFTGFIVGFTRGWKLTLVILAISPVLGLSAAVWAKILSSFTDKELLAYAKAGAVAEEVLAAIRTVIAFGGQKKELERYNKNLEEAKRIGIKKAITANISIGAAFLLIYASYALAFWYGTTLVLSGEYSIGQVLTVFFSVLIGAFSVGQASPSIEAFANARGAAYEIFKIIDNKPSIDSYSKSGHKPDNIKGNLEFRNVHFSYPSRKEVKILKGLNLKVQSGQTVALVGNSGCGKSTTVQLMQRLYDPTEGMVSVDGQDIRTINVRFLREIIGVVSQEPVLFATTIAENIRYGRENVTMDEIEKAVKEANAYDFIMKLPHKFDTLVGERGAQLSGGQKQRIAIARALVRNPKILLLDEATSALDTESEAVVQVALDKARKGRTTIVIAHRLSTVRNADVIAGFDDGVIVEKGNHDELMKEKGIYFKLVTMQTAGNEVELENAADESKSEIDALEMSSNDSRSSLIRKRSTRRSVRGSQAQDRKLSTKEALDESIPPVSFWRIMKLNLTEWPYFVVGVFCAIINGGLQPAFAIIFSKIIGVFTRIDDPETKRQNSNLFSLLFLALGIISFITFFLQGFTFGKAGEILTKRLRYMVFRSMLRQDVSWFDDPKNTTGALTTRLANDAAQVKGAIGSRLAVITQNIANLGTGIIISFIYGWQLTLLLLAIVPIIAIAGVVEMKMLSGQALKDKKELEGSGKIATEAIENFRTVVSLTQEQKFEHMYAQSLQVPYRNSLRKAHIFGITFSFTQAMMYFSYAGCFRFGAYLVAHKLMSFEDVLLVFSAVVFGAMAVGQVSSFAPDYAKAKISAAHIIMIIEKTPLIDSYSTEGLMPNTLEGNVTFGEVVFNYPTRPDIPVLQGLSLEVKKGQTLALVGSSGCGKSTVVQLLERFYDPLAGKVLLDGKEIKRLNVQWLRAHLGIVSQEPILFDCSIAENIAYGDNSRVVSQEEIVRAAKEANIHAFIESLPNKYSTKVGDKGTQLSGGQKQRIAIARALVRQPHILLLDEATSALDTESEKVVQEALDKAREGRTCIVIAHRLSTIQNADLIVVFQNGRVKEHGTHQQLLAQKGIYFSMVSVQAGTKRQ

## CN1C(=O)[C@@H](NC(=O)c2n[nH]c(Cc3ccccc3)n2)COc2ccc(C#CC(C)(C)O)cc21 [Compound I, (S)-5-benzyl-N-(7-(3-hydroxy-3-methylbut-1-yn-1-yl)-5-methyl-4-oxo-2,3,4,5-tetrahydrobenzo[b][1,4]oxazepin-3-yl)-1H-1,2,4-triazole-3-carboxamide]
CYP3A5
  induction of CYP3A5: may induce
[1]; dose range of 12 to 1000 mg
  Exposure versus dose: increased in a proportional manner
[1]; plasma, oral, 0.7 mg/kg/day, read-out: AUC0-24, human dose 50 mg
  AUC(0-t): 16 µg·h/mL
[1]; plasma, oral, 1.8 mg/kg/day, read-out: AUC0-24, human dose 125 mg
  AUC(0-t): 40.1 µg·h/mL
[1]; plasma, oral, human subjects
  half-life: 13 to 15 h
CYP2C8
  inhibition of drugs metabolized by CYP2C8: may inhibit
Rats [2]; [8]
  Margin of Safety, rat EFD NOEL vs human 50 mg: 70 X
  Margin of Safety, rat EFD NOEL vs human 125 mg: 28 X
Rats [2]; concerns for women of childbearing potential
  developmental and reproductive toxicology outcome, rats: did not reveal any concerns
Rats [2]; rat embryofetal development study
  Rat EFD NOEL dose: 1000 mg/kg/day
[3]
  AUC(0-t): 1120 µg·h/mL
P-gp
  inhibition of substrates of P-gp transporter: may also inhibit
[4]
  bioavailability, amorphous state (solid dispersion) over crystalline form: significantly improved
Rats [5]; [8]
  Margin of Safety, rat NOAEL vs human 50 mg: 67 X
  Margin of Safety, rat NOAEL vs human 125 mg: 27 X
Rats [5]; toxicology studies up to 6 months
  toxicology findings in rats: minimal effects
[6]
  AUC(0-t): 1080 µg·h/mL
monkeys; [8]
  Margin of Safety, monkey NOAEL vs human 50 mg: 17 X
  Margin of Safety, monkey NOAEL vs human 125 mg: 7 X
monkeys; monkeys, toxicology studies up to 9 months
  doses with mortality related to secondary infections: ≥ 250 mg/kg/day
[7]
  NOAEL at 9 months: 150 mg/kg
[7]; po, plasma toxicokinetics on Day 273, 150 mg/kg/day, read-out: AUC0-24 at monkey NOAEL
  AUC(0-t): 278 µg·h/mL
OATP1B3
  inhibition of substrates of OATP1B3 transporter: may also inhibit
BCRP
  inhibition of substrates of BCRP transporter: may also inhibit
